Where no end group is shown, it is not given here.
Biological target: T1, RAMP1-CLR ECD (CGRP); purified MBP-RAMP1 ECD-(GS)5-CLR ECD-H6 fusion protein (Homo sapiens, UniProt O60894+Q16602)
T1 construct: MBP-hRAMP1.24-111-(Gly-Ser)5-hCLR.29-144-H6; made in house; host or cells: E. coli
Test: Fluorescence polarization (FP) peptide binding competition assay, CGRP receptor ECD complex
Conditions: for Receptor Selectivity, fold for CGRP: CGRP (RAMP1-CLR ECD) over AM1 (RAMP2-CLR ECD); for Receptor Selectivity (in words): CGRP vs AM1 receptor ECD complexes
Procedure: Fluorescence polarization peptide binding assay. […] The reactions (50 μL) were incubated for 2 hours at room temperature to reach equilibrium, and the anisotropy was measured in black half-area 96-well plates using a BMG LABTECH's POLARstar® Omega plate reader (Ortenberg, Germany). The reaction buffer was 50 mM HEPES, pH 7.5, 150 mM NaCl, 0.5 mg/ml fatty acid-free BSA, 0.5 mM EDTA, 0.5 mM maltose. Ki values were calculated using nonlinear regression fitting of the competition curves to the exact analytical equations of Roehrl et al. (Biochemistry (2004) 43:16056-66) using GraphPad Prism 5.0 (GraphPad Software, San Diego Calif.).
(§1) The ability of the indicated peptides to displace a FITC-Ahx-AM(37-52)NH2 [S45W, Q50W] probe (7 nM) from purified MBP-RAMP1 ECD-(GS)5-CLR ECD-H6 fusion protein (15 nM) was assessed by fluorescence polarization (anisotropy). The reactions were incubated for 2 hours at room temperature to reach equilibrium, and the anisotropy was measured in black half-area 96-well plates using a BMG LABTECH's POLARstar® Omega plate reader (Ortenberg, Germany). The reaction buffer was 50 mM HEPES, pH 7.5, 150 mM NaCl, 0.5 mg/ml fatty acid-free BSA, 0.5 mM EDTA, 0.5 mM maltose. KI values were calculated using nonlinear regression fitting of the competition curves to the exact analytical equations of Roehrl et al. (Biochemistry (2004) 43:16056-66) using GraphPad Prism 5.0 (GraphPad Software, San Diego Calif.).
as §1, with “Single representative experiments conducted with duplicate samples are shown. Error bars are S.E.M. The ability” for “The ability”, “displace a FITC-Ahx-AM(37-52)NH2[S45W, Q50W] probe” for “displace a FITC-Ahx-AM(37-52)NH2 [S45W, Q50W] probe”
A fluorescence polarization/anisotropy (FP) peptide-binding assay was developed using N-terminally FITC-labeled AM(37-52) S45W/Q50W as the probe, hereafter “FITC-AM W/W.” The probe was custom synthesized and HPLC-purified by RS Synthesis. The large size difference between the MBP-RAMP ECD-CLR ECD fusion proteins (˜65 kDa) and the probe (˜2.5 kDa) ensures a significant anisotropy difference between bound and free states of the probe. […] Kd values for the probe at each of the tethered ECD fusion proteins were determined in equilibrium saturation binding experiments (data not shown), and KI values were determined for unlabeled peptides in equilibrium competition experiments (Table 1; FIGS. 2-5). The data were analyzed according to exact analytical equations using non-linear regression curve fitting in GraphPad Prism 5.0 (GraphPad Software) via user-defined equations.

[1] = RAMP1-CLR ECD (CGRP) KI (nM), FP competition, FITC-AM W/W probe 7 nM, fusion protein 15 nM

Receptor Selectivity, fold for CGRP (FP assay)	Ki [1] [nM]	KI for the CGRP receptor ECD complex (FP assay)	Receptor Selectivity (in words) (FP assay)	Ki (RAMP1-CLR ECD (CGRP) pKI, FP competition, FITC-AM W/W probe 7 nM, fusion protein 15 nM, mean ± S.E.M of at least 3 independent experiments) [nM]	RAMP1-CLR ECD (CGRP) KI (nM) (FP competition, FITC-AM W/W probe 7 nM, fusion protein 15 nM)	Substance
2820-fold for CGRP	31.6					DKDNVAPRSLISPWGF-NH2 [K46L/Q50W/Y52F]
28-fold for CGRP	439					DKDNVAPRTWISPWGY-NH2 [S45T/K46W/Q50W]
821-fold for CGRP	17.6					FVPTDTGPWGY-NH2 [N31D/V32T/S34P/K35W/A36G/F37Y]
≥2754-fold for CGRP	< 1	well into the pM range				FVPTDTGPWSF-NH2 [N31D/V32T/S34P/K35W/A36S]
977-fold for CGRP	7.94					DKDNVAPRWMISPWGF-NH2 [S45W/K46M/Q50W/Y52F]
	44.7		Non-selective			DKDNVAPRWKISPWGY-NH2 [S45W/Q50W]
22-fold for CGRP	82.2			79.4		DKFNVAPRSLISPWGY-NH2 [D39F/K46L/Q50W]
23-fold for CGRP	70.8					DKDNVAPRSLISPWGY-NH2 [K46L/Q50W]
24-fold for CGRP	65.6					DKDNVAPRTLISPWGY-NH2 [S45T/K46L/Q50W]
			AM1		No binding	DKKNVAPRSKISPQGY-NH2 [Peptide D39K]
692-fold for CGRP	24					DKDNVAPRWWISPWGF-NH2 [S45W/K46W/Q50W/Y52F]
